Experimental data taken from US20140011853A1, “SUBSTITUTED 3-(BIPHENYL-3-YL)-8,8-DIFLUORO-4-HYDROXY-1-AZASPIRO[4.5]DEC-3-EN-2-ONES FOR THERAPY” (BAYER INTELLECTUAL PROPERTY GMBH, priority 2011, published 2014).
Where “and” joins values, the source holds several entries; their conditions need not be identical. Equal values may be shown once.

Experiments:
human ACC2 = human ACC2 (Homo sapiens, UniProt O00763); experiment: Human ACC2 enzyme assay (ADP-Glo); details: ACC 2 IC50, individual measurements
Chain of human ACC2 (O00763 27-2458 limits assumed): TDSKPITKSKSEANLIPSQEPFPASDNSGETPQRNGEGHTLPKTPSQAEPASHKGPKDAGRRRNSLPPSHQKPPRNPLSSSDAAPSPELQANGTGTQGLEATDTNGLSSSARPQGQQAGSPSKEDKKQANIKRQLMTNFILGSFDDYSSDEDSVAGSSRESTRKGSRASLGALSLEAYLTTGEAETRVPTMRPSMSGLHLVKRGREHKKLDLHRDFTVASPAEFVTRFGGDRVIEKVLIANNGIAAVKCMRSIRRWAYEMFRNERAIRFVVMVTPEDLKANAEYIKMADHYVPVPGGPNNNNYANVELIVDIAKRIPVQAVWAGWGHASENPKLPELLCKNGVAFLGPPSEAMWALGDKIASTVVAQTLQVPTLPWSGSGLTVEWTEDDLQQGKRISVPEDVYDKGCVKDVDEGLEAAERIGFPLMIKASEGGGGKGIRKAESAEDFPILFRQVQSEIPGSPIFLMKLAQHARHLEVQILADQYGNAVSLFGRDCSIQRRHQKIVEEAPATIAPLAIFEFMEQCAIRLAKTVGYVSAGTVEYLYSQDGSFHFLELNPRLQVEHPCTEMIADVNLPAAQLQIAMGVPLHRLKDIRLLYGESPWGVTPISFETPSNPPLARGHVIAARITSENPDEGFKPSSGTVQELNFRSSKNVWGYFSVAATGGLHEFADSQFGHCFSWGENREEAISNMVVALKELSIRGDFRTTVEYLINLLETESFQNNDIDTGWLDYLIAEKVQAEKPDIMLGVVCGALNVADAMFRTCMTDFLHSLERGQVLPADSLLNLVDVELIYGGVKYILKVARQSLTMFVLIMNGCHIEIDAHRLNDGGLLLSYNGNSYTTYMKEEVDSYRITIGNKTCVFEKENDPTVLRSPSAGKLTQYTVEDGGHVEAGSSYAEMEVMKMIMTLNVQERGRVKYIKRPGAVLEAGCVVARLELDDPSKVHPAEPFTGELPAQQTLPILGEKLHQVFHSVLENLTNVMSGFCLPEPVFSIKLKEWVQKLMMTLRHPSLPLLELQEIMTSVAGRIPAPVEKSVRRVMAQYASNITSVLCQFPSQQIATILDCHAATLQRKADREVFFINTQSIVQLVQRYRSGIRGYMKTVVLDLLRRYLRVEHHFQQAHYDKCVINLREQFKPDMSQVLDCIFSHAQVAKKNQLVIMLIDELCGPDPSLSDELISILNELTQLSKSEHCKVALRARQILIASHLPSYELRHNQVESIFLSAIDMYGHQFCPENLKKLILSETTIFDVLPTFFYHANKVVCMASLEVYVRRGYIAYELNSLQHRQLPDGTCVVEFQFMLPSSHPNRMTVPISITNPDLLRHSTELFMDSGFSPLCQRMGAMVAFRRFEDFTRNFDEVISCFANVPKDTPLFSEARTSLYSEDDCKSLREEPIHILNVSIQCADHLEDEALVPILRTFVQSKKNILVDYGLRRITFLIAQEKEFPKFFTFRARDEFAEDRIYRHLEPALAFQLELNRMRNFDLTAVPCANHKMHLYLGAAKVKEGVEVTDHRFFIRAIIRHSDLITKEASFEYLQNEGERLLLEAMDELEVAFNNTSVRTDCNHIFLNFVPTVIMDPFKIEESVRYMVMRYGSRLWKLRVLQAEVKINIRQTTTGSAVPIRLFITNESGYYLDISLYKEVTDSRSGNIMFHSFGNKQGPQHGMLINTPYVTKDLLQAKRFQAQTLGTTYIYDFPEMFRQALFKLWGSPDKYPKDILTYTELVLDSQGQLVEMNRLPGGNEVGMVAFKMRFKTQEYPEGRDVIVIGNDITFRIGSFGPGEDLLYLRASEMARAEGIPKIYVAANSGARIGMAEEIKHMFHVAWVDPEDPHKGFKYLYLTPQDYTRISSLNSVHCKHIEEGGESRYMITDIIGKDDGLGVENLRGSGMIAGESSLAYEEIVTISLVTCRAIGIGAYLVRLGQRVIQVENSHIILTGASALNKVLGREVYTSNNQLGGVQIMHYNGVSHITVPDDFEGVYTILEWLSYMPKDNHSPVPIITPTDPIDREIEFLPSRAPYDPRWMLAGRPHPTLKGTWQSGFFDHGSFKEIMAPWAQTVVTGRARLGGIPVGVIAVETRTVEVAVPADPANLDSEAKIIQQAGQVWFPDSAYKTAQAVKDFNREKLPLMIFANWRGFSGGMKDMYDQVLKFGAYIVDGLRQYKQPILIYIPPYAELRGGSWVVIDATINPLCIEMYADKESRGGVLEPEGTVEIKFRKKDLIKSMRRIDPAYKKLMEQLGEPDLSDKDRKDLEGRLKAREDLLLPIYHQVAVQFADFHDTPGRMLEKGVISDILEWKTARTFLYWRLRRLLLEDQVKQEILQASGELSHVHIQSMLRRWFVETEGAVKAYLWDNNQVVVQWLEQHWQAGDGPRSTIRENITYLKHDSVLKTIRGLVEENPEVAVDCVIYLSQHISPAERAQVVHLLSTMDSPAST

human ACC1 [1] = target: T1, human ACC1 (Homo sapiens, UniProt Q13085); experiment: Human ACC1 enzyme assay (ADP-Glo); assay type: biochemical; details: individual measurements; read-out: ACC 1 IC50
T1 construct: FLAG (C); made in house; host or cells: baculovirus-infected insect cells (Hi5)

human ACC1 [2] = experiment: Human ACC1 enzyme assay (ADP-Glo); assay type: biochemical; details: for Ratio of IC50s ACC2/ACC1 (respective measurement): pairwise, same dilution series
Tetranychus urticae = experiment: Tetranychus test, OP-resistant (TETRUR spray treatment); assay type: in vivo; details: for pest or weed control at 100 g/ha / effect (kill of spider mites): after 6 days; for pest or weed control at 100 g/ha: read-out: effect (kill of spider mites)
MCF7 = experiment: Tumour cell proliferation, CellTiter-Glo, 96-hour incubation, MCF7; assay type: cell-based; details: Homo sapiens, MCF7, 96 h; read-out: MCF7 IC50
Procedure: (§1) In accordance with the invention, the substances were tested in cell-based assays for the ability of the substances of inhibiting tumour cell proliferation after a 96-hour incubation with the substance. Cell viability was tested using the CellTiter-Glo® luminescent cell viability assay (Promega). The cells were sown at a density of 2000-5000 cells/well (depending on the cell line) in 100 μl growth medium on 96-well microtiter plates. For each cell line examined, cells were sown on a separate plate to determine the luminescence at t=0 hours and t=96 hours. After overnight incubation at 37° C., the luminescence values for the t=0 samples were determined. The dose plates for the t=96 hours points in time were treated with substances diluted with growth medium. The cells were then incubated at 37° C. for 96 hours, and the luminescence values for the t=96 hours samples were then determined. For data analysis, the t=0 values were subtracted from the t=96 hours values for treated and untreated samples. The differences in luminescence in percent between substance-treated samples and control values were used to determine the growth inhibition in percent.
(§2) The substances were tested in the following cell lines which represent the stated indications in an exemplary manner: […]

H460 = experiment: Tumour cell proliferation, CellTiter-Glo, 96-hour incubation, H460; assay type: cell-based; details: Homo sapiens, NCI-H460, 96 h; read-out: H460 IC50
Procedure: as §1, §2

Spodoptera frugiperda = Spodoptera frugiperda test (SPODFR spray treatment); assay type: in vivo; details: 500 g/ha, after 7 days
PC3 = experiment: Tumour cell proliferation, CellTiter-Glo, 96-hour incubation, PC3; assay type: cell-based; details: Homo sapiens, PC-3, 96 h; read-out: PC3 IC50
Procedure: as §1, §2

Phaedon cochleariae = experiment: Phaedon test (PHAECO spray treatment); details: for effect (kill of beetle larvae): 500 g/ha, after 7 days
KM12 = experiment: Tumour cell proliferation, CellTiter-Glo, 96-hour incubation, KM12; assay type: cell-based; details: Homo sapiens, KM12, 96 h; read-out: KM12 IC50
Procedure: as §1, §2

Myzus persicae = experiment: Myzus test (MYZUPE spray treatment); assay type: in vivo; details: for pest or weed control at 500 g/ha / effect (kill of aphids): after 6 days, 500 g/ha; for pest or weed control at 500 g/ha: read-out: effect (kill of aphids)
Source text: Disks of Chinese cabbage (Brassica pekinensis) infested by all stages of the green peach aphid (Myzus persicae) are sprayed with an active compound formulation of the desired concentration.

[3] = Tetranychus urticae, 144 h, 100 g/ha

SMILES | IC50 (human ACC2) | IC50 (human ACC1 [1]) | Selectivity ACC1 vs. ACC2 (mean of the individual measurements ± standard deviation) (human ACC1 [2]) | pest or weed control at 100 g/ha (Tetranychus urticae; [3]) [%] | IC50 (MCF7) [nM] | IC50 (H460) [nM] | effect (kill of caterpillars) (Spodoptera frugiperda) [%] | IC50 (PC3) [nM] | effect (kill of beetle larvae) (Phaedon cochleariae) [%] | IC50 (KM12) [nM] | pest or weed control at 500 g/ha (Myzus persicae; Myzus persicae, 144 h) [%] | effect (kill of spider mites) (Tetranychus urticae; 100 g/ha) [%] | effect (kill of aphids) (Myzus persicae) [%] | also measured
Cc1ccc(-c2ccc(F)cc2)cc1C1=C(O)C2(CCC(F)(F)CC2)NC1=O [Example 1-3, 8,8-Difluoro-3-(4′-fluoro-4-methylbiphenyl-3-yl)-4-hydroxy-1-azaspiro[4.5]dec-3-en-2-one] | > 20000 nM | 166 nM and 241 nM | >101.8 ± 19.0 | 100 | 209 | 678 | 100 | 476 | 100 | 578 | 90 | – | – | Ratio of IC50s ACC2/ACC1 (respective measurement) (human ACC1 [2]): >120.8 and >82.8
O=C1NC2(CCC(F)(F)CC2)C(O)=C1c1cc(-c2ccc(Cl)cc2)ccc1Cl [Example 1-4, 3-(4,4′-Dichlorobiphenyl-3-yl)-8,8-difluoro-4-hydroxy-1-azaspiro[4.5]dec-3-en-2-one] | 5480 nM and 3110 nM | 121 nM and 91 nM | 39.7 ± 5.7 | 90 | 86 | 481 | 100 | 231 | 100 | 319 | 90 | – | – | Ratio of IC50s ACC2/ACC1 (respective measurement) (human ACC1 [2]): 45.5 and 34.0
Cc1ccc(-c2ccc(F)c(F)c2)cc1C1=C(O)C2(CCC(F)(F)CC2)NC1=O [Example 1-6, 3-(3′,4′-Difluoro-4-methylbiphenyl-3-yl)-8,8-difluoro-4-hydroxy-1-azaspiro[4.5]dec-3-en-2-one] | 3870 nM and 8030 nM | 133 nM and 107 nM | 51.9 ± 22.8 | 90 | 45 | 371 | – | 158 | 100 | 257 | 100 | – | – | inhibition at 20 g/ha (Tetranychus urticae; Tetranychus urticae, 144 h, 20 g/ha, 6 d, read-out: % activity TETRUR): 90%; melting point: 223 °C; inhibition at 20 g/ha (Phaedon cochleariae; Phaedon cochleariae, 168 h, read-out: % activity PHAECO): 67%; inhibition at 20 g/ha (Myzus persicae; Myzus persicae, 144 h, 20 g/ha, 6 d, read-out: % activity MYZUPE): 100%
Cc1cc(C)c(C2=C(O)C3(CCC(F)(F)CC3)NC2=O)c(C)c1 [Example I-1-a-1] | – | – | – | 100 | – | – | 83 | – | – | – | 100 | – | – | –
Cc1cc(Br)cc(C)c1C1=C(O)C2(CCC(F)(F)CC2)NC1=O [Example I-1-a-5] | – | – | – | – | – | – | – | – | 100 | – | – | 100 | 100 | –
Cc1cc(Cl)cc(C)c1C1=C(O)C2(CCC(F)(F)CC2)NC1=O [Example I-1-a-7] | – | – | – | – | – | – | – | – | 100 | – | – | 100 | 100 | –
Cc1cc(OCC(F)(F)F)cc(C)c1C1=C(O)C2(CCC(F)(F)CC2)NC1=O [Example I-1-a-8] | – | – | – | 100 | – | – | – | – | 100 | – | 100 | – | – | –
Cc1cc(-c2ccc(Cl)cc2)cc(C)c1C1=C(O)C2(CCC(F)(F)CC2)NC1=O [Example I-1-a-9] | – | – | – | 100 | – | – | – | – | 100 | – | 100 | – | – | –
CCc1cc(C)cc(C)c1C1=C(O)C2(CCC(F)(F)CC2)NC1=O [Example I-1-a-11] | – | – | – | – | – | – | – | – | – | – | – | 100 | – | –
Cc1ccc(-c2ccc(F)cc2)c(C)c1C1=C(O)C2(CC=C(F)CC2)NC1=O (stereo not shown) [Example I-1-a-12] | – | – | – | – | – | – | 100 | – | 100 | – | – | – | 100 | effect (kill of spider mites) (Tetranychus urticae; 500 g/ha): 100%
